Test results reported in US20210137117A1, “HERBICIDAL MIXTURES” (Bayer Aktiengesellschaft, priority 2017, published 2021).
“And” between values parts separate entries of the source, which are not always exact repeats. Equal values may be shown once.

Tests used:
Assay in all cases: Pre-emergence action against weeds (greenhouse)
Assay type in all cases: in vivo
[1] = tested on: ALOMY—sensitive (Alopecurus myosuroides)
Excerpt: (§1) Depending on the trial conditions, the soil of the standard field soil is sterile or not sterile.
(§2) The amount of water used for spray application was 300l/ha.
ALOMY—sensitive (Alopecurus myosuroides) sensitive to customary herbicidally active compounds.
(§3) Insofar as herbicidal effects of the compositions according to the invention compared to mixtures of the prior art or compared to components applied individually against economically important mono- and dicotyledonous harmful plants were the centre of attention, the synergistic herbicidal activities were calculated using Colby's formula (cf. S. R. Colby; Weeds 15 (1967), 20-22): […]

[2] = tested on: ALOMY—resistant (Alopecurus myosuroides)
Excerpt: as §1, §2
ALOMY—resistant (Alopecurus myosuroides) resistant to herbicidally active compounds of the HRAC groups A and B; population mixture of field origin having increased metabolic resistance (IMR) and some target site resistance (TSR).
as §3

[3] = tested on: LOLRI—sensitive (Lolium rigidum)
Excerpt: as §1, §2
LOLRI—sensitive (Lolium rigidum) sensitive to customary herbicidally active compounds.
as §3

[4] = tested on: LOLRI—resistant (Lolium rigidum)
Excerpt: as §1, §2
LOLRI—resistant (Lolium rigidum) resistant to herbicidally active compounds of the HRAC groups A and B; population mixture of field origin having increased metabolic resistance (IMR) and some target site resistance (TSR).
as §3

AVEFA (Avenafatua) = tested on: AVEFA (Avenafatua)
Excerpt: as §1, §2
AVEFA (Avenafatua)—Wild oat
as §3

BROST (Bromus sterilis) = tested on: BROST (Bromus sterilis)
Excerpt: as §1, §2
BROST (Bromus sterilis)—Bromegrass, barren
as §3

PAPRH (Papaver rhoeas) = tested on: PAPRH (Papaver rhoeas)
Excerpt: as §1, §2
PAPRH (Papaver rhoeas)—Poppy, common
as §3

[5] = tested on: SORHA (Sorghum halepense)
Excerpt: as §1, §2
SORHA (Sorghum halepense)—Johnsongrass
as §3

CENCY (Centaurea cyanus) = tested on: CENCY (Centaurea cyanus)
Excerpt: as §1, §2
CENCY (Centaurea cyanus)—Cornflower
as §3

[6] = tested on: VERHE (Veronica hederaefolia)
Excerpt: as §1, §2
VERHE (Veronica hederaefolia)—Speedwell, iveleaf
as §3

EMEAU (Emex australis) = tested on: EMEAU (Emex australis)
Excerpt: as §1, §2
EMEAU (Emex australis)—Cathead
as §3

[7] = tested on: RAPRA (Raphanus raphanistrum)
Excerpt: as §1, §2
RAPRA (Raphanus raphanistrum)—Charlock, jointed
as §3

BRSNW (Brassica napus) = tested on: BRSNW (Brassica napus)
Excerpt: as §1, §2
BRSNW (Brassica napus)—Rape, winter
as §3

[8] = tested on: TRZAS (Triticum aestivum)
Excerpt: as §1, §2
TRZAS (Triticum aestivum)—Wheat, spring
as §3

HORVS (Hordeum vulgare) = tested on: HORVS (Hordeum vulgare)
Excerpt: as §1, §2
HORVS (Hordeum vulgare)—Barley, spring
as §3

[9] = pre-emergence, dose 100 g AS/ha

CC1(C)CON(Cc2ccc(Cl)cc2Cl)C1=O [2-[(2,4-dichlorophenyl)methyl]-4,4-dimethyl-3-isoxazolidinone]
herbicidal action ([1]; 10 g AS/ha): 0%
herbicidal action ([1]; 25 g AS/ha): 0%
herbicidal action ([1]; 50 g AS/ha): 20%
herbicidal action ([1]; 100 g AS/ha): 60%
herbicidal action ([1]; 200 g AS/ha): 95%
herbicidal action ([1]; 250 g AS/ha): 93%
herbicidal action ([1]; 400 g AS/ha): 95%
herbicidal action ([1]; 500 g AS/ha): 95%
Herbicidal action ALOMY sensitive [1, 9]: 60
herbicidal action ([2]; 10 g AS/ha): 0%
herbicidal action ([2]; 25 g AS/ha): 0%
herbicidal action ([2]; 50 g AS/ha): 10% and 20%
herbicidal action ([2]; 100 g AS/ha): 60%
herbicidal action ([2]; 200 g AS/ha): 80%
herbicidal action ([2]; 250 g AS/ha): 93%
herbicidal action ([2]; 400 g AS/ha): 95%
herbicidal action ([2]; 500 g AS/ha): 95%
Herbicidal action ALOMY resistant [2, 9]: 60
herbicidal action ([3]; 10 g AS/ha): 0%
herbicidal action ([3]; 25 g AS/ha): 30%
herbicidal action ([3]; 50 g AS/ha): 70%
herbicidal action ([3]; 100 g AS/ha): 70%
herbicidal action ([3]; 200 g AS/ha): 90%
herbicidal action ([3]; 250 g AS/ha): 95%
herbicidal action ([3]; 400 g AS/ha): 95%
herbicidal action ([3]; 500 g AS/ha): 95%
Herbicidal action LOLRI sensitive [3, 9]: 70
herbicidal action ([4]; 10 g AS/ha): 0%
herbicidal action ([4]; 25 g AS/ha): 5%
herbicidal action ([4]; 50 g AS/ha): 60% and 30%
herbicidal action ([4]; 100 g AS/ha): 70% and 75%
herbicidal action ([4]; 200 g AS/ha): 80%
herbicidal action ([4]; 250 g AS/ha): 80%
herbicidal action ([4]; 400 g AS/ha): 94%
herbicidal action ([4]; 500 g AS/ha): 94%
Herbicidal action LOLRI resistant [4, 9]: 75
herbicidal action (AVEFA (Avenafatua); 10 g AS/ha): 0%
herbicidal action (AVEFA (Avenafatua); 25 g AS/ha): 5%
herbicidal action (AVEFA (Avenafatua); 50 g AS/ha): 15%
herbicidal action (AVEFA (Avenafatua); 100 g AS/ha): 50%
herbicidal action (AVEFA (Avenafatua); 200 g AS/ha): 70%
herbicidal action (AVEFA (Avenafatua); 250 g AS/ha): 75%
herbicidal action (AVEFA (Avenafatua); 400 g AS/ha): 75%
herbicidal action (AVEFA (Avenafatua); 500 g AS/ha): 80%
Herbicidal action AVEFA (AVEFA (Avenafatua); [9]): 50
herbicidal action (BROST (Bromus sterilis); 10 g AS/ha): 0%
herbicidal action (BROST (Bromus sterilis); 25 g AS/ha): 0%
herbicidal action (BROST (Bromus sterilis); 50 g AS/ha): 0%
herbicidal action (BROST (Bromus sterilis); 100 g AS/ha): 20%
herbicidal action (BROST (Bromus sterilis); 200 g AS/ha): 30%
herbicidal action (BROST (Bromus sterilis); 250 g AS/ha): 65%
herbicidal action (BROST (Bromus sterilis); 400 g AS/ha): 70%
herbicidal action (BROST (Bromus sterilis); 500 g AS/ha): 75%
Herbicidal action BROST (BROST (Bromus sterilis); [9]): 20
herbicidal action (PAPRH (Papaver rhoeas); 250 g AS/ha): 95%
herbicidal action (PAPRH (Papaver rhoeas); 400 g AS/ha): 95%
herbicidal action (PAPRH (Papaver rhoeas); 500 g AS/ha): 95%
herbicidal action ([5]; 10 g AS/ha): 0%
herbicidal action ([5]; 25 g AS/ha): 0%
herbicidal action ([5]; 50 g AS/ha): 30%
herbicidal action ([5]; 100 g AS/ha): 40%
herbicidal action ([5]; 200 g AS/ha): 60%
Herbicidal action SORHA [5, 9]: 40
herbicidal action (CENCY (Centaurea cyanus); 10 g AS/ha): 0%
herbicidal action (CENCY (Centaurea cyanus); 25 g AS/ha): 0%
herbicidal action (CENCY (Centaurea cyanus); 50 g AS/ha): 10%
herbicidal action (CENCY (Centaurea cyanus); 100 g AS/ha): 70%
herbicidal action (CENCY (Centaurea cyanus); 200 g AS/ha): 88%
Herbicidal action CENCY (CENCY (Centaurea cyanus); [9]): 70
herbicidal action ([6]; 10 g AS/ha): 15%
herbicidal action ([6]; 25 g AS/ha): 40%
herbicidal action ([6]; 50 g AS/ha): 70%
herbicidal action ([6]; 100 g AS/ha): 80%
herbicidal action ([6]; 200 g AS/ha): 90%
herbicidal action ([6]; 250 g AS/ha): 95%
herbicidal action ([6]; 400 g AS/ha): 95%
herbicidal action ([6]; 500 g AS/ha): 95%
Herbicidal action VERHE [6, 9]: 80
herbicidal action (EMEAU (Emex australis); 10 g AS/ha): 0%
herbicidal action (EMEAU (Emex australis); 25 g AS/ha): 0%
herbicidal action (EMEAU (Emex australis); 50 g AS/ha): 10%
herbicidal action (EMEAU (Emex australis); 200 g AS/ha): 40%
herbicidal action (EMEAU (Emex australis); 250 g AS/ha): 60%
herbicidal action (EMEAU (Emex australis); 400 g AS/ha): 70%
herbicidal action (EMEAU (Emex australis); 500 g AS/ha): 70%
Herbicidal action EMEAU (EMEAU (Emex australis); [9]): 20
herbicidal action ([7]; 10 g AS/ha): 0%
herbicidal action ([7]; 25 g AS/ha): 5%
herbicidal action ([7]; 50 g AS/ha): 20%
herbicidal action ([7]; 100 g AS/ha): 40%
herbicidal action ([7]; 200 g AS/ha): 50%
herbicidal action ([7]; 250 g AS/ha): 60%
herbicidal action ([7]; 400 g AS/ha): 80%
herbicidal action ([7]; 500 g AS/ha): 90%
Herbicidal action RAPRA [7, 9]: 40
herbicidal action (BRSNW (Brassica napus); 10 g AS/ha): 0%
herbicidal action (BRSNW (Brassica napus); 25 g AS/ha): 0%
herbicidal action (BRSNW (Brassica napus); 50 g AS/ha): 0%
herbicidal action (BRSNW (Brassica napus); 100 g AS/ha): 0%
herbicidal action (BRSNW (Brassica napus); 200 g AS/ha): 5%
herbicidal action (BRSNW (Brassica napus); 250 g AS/ha): 20%
herbicidal action (BRSNW (Brassica napus); 400 g AS/ha): 20%
herbicidal action (BRSNW (Brassica napus); 500 g AS/ha): 20%
Herbicidal action BRSNW (BRSNW (Brassica napus); [9]): 0
herbicidal action ([8]; 10 g AS/ha): 0%
herbicidal action ([8]; 25 g AS/ha): 0%
herbicidal action ([8]; 50 g AS/ha): 0%
herbicidal action ([8]; 100 g AS/ha): 5%
herbicidal action ([8]; 200 g AS/ha): 40%
herbicidal action ([8]; 250 g AS/ha): 50%
herbicidal action ([8]; 400 g AS/ha): 60%
herbicidal action ([8]; 500 g AS/ha): 70%
Herbicidal action (crop damage) TRZAS [8, 9]: 5
herbicidal action (HORVS (Hordeum vulgare); 10 g AS/ha): 0%
herbicidal action (HORVS (Hordeum vulgare); 25 g AS/ha): 2%
herbicidal action (HORVS (Hordeum vulgare); 50 g AS/ha): 5%
herbicidal action (HORVS (Hordeum vulgare); 100 g AS/ha): 15%
herbicidal action (HORVS (Hordeum vulgare); 200 g AS/ha): 40%
herbicidal action (HORVS (Hordeum vulgare); 250 g AS/ha): 50%
herbicidal action (HORVS (Hordeum vulgare); 400 g AS/ha): 60%
herbicidal action (HORVS (Hordeum vulgare); 500 g AS/ha): 60%
Herbicidal action (crop damage) HORVS (HORVS (Hordeum vulgare); [9]): 15
